Measurements published in patent publication US20070053942A1, “Disinfectant and/or bactericidal aqueous compositions” (priority 2003, published 2007).
Counter-ions that a name gives are not always drawn.

Test: solubility in water
Format: physicochemical

solubility (in water) of olanexidine hydrochloride alone (at 0° C.): 0.02% | solubility in water (at 0° C.): 0.02 W/V % | Solubility (at 25° C., water, pH adjusted to 6): 0.05 W/V %
Structure (SMILES): CCCCCCCCNC(=N)NC(=N)NCc1ccc(Cl)c(Cl)c1 [olanexidine hydrochloride, 1-(3,4-dichlorobenzyl)-5-octylbiguanide]
